Publication PMC4685510, “A Cell Biologist’s Field Guide to Aurora Kinase Inhibitors” (Frontiers in Oncology, 2015)

Legend:
Experiment in all cases: biochemical
Type in all cases: biochemical
[1] = molecular target: 363 human kinases (including Aurora A/B/C) (Homo sapiens, UniProt Q15349); conditions: RSK3; for remaining activity at 0.1 µM: 100 nM; for remaining activity at 0.1 µM / remaining activity at 0.5 µM: read-out: % Enzyme Activity (relative to DMSO controls)
Excerpt: (§1) However, the Aurora A/B selectivity ratios derived from our in vitro and in vivo data can be compared to prioritize inhibitors.

[2] = molecular target: 363 human kinases (including Aurora A/B/C) (Homo sapiens, UniProt Q9NYL2); conditions: ZAK/MLTK; for remaining activity at 0.1 µM: 100 nM; for remaining activity at 0.1 µM / remaining activity at 0.5 µM: read-out: % Enzyme Activity (relative to DMSO controls)
Excerpt: as §1

[3] = molecular target: 363 human kinases (including Aurora A/B/C) (Homo sapiens, UniProt Q15746); conditions: MLCK/MYLK; for remaining activity at 0.1 µM: 100 nM; for remaining activity at 0.1 µM / remaining activity at 0.5 µM: read-out: % Enzyme Activity (relative to DMSO controls)
363 human kinases (including Aurora A/B/C) (Homo sapiens, UniProt Q15746), sequence (Q15746 whole entry): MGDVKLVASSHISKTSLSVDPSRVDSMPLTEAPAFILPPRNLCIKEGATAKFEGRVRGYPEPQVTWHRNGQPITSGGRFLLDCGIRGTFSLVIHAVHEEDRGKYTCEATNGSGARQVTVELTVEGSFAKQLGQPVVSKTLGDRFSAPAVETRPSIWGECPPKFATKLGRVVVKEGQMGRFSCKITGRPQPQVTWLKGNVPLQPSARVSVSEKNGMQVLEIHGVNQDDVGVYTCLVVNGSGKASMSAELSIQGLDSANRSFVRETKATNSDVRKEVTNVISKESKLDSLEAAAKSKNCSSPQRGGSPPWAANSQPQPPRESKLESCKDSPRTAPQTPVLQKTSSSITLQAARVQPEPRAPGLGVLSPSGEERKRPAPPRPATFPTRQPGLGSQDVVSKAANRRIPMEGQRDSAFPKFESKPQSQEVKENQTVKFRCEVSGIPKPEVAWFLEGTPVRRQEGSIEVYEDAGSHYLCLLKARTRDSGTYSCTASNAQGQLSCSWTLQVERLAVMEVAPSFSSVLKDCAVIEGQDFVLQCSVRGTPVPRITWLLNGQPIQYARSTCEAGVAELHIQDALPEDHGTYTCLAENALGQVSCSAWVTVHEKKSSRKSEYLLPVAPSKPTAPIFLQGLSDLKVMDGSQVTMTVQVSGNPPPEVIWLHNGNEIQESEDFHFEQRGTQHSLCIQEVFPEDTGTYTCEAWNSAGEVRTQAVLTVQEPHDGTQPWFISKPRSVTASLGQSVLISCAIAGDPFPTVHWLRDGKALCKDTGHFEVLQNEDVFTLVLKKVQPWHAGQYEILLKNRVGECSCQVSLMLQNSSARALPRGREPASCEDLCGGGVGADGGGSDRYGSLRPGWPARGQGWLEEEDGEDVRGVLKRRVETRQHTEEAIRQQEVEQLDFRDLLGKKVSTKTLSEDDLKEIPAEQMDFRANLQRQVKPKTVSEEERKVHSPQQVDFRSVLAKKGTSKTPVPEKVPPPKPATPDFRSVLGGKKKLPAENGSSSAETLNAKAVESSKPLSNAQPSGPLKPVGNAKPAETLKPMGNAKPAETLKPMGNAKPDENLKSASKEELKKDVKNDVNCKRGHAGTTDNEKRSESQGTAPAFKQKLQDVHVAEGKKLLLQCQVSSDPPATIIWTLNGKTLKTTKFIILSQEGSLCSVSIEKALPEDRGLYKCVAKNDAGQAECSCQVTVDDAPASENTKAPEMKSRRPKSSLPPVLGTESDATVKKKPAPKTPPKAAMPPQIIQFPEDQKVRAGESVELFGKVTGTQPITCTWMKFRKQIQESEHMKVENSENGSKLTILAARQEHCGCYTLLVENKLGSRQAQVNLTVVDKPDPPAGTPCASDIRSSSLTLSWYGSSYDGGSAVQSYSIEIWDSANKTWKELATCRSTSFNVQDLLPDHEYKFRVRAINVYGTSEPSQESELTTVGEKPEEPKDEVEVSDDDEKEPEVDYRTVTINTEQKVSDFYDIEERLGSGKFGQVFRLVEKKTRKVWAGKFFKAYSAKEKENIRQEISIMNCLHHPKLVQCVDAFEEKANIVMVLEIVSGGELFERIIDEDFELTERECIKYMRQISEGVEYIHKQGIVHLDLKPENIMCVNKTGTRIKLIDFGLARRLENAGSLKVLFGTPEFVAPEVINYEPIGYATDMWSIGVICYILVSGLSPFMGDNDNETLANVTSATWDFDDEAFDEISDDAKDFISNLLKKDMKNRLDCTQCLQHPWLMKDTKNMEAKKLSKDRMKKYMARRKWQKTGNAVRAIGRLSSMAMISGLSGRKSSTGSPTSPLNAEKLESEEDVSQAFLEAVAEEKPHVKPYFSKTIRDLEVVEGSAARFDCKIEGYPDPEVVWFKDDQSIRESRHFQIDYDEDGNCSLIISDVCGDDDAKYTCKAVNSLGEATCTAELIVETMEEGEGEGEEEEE
Excerpt: as §1

[4] = molecular target: 363 human kinases (including Aurora A/B/C) (Homo sapiens, UniProt Q8N5S9); conditions: CAMKK1, [ATP] 5 µM; for remaining activity at 0.1 µM: 100 nM; for remaining activity at 0.1 µM / remaining activity at 0.5 µM: read-out: % Enzyme Activity (relative to DMSO controls)
363 human kinases (including Aurora A/B/C) (Homo sapiens, UniProt Q8N5S9), sequence (Q8N5S9 whole entry): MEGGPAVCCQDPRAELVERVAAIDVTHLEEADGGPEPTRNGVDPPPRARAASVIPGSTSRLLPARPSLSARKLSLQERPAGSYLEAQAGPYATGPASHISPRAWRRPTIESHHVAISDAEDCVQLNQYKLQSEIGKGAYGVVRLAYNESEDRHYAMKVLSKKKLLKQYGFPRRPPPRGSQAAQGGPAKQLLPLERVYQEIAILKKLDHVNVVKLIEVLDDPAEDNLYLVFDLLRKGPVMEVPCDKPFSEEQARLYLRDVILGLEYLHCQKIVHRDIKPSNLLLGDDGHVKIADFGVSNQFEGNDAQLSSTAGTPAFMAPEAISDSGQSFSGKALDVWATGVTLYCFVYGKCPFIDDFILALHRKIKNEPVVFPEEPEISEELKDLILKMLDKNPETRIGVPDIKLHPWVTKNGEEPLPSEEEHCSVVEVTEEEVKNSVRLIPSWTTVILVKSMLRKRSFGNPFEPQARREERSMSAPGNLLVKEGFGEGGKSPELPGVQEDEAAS
Excerpt: as §1

[5] = molecular target: 363 human kinases (including Aurora A/B/C) (Homo sapiens, UniProt P49137); conditions: MAPKAPK2; for remaining activity at 0.1 µM: 100 nM; for remaining activity at 0.1 µM / remaining activity at 0.5 µM: read-out: % Enzyme Activity (relative to DMSO controls)
Excerpt: as §1

[6] = molecular target: 363 human kinases (including Aurora A/B/C) (Homo sapiens, UniProt P07948); conditions: LYN; for remaining activity at 0.1 µM: 100 nM; for remaining activity at 0.1 µM / remaining activity at 0.5 µM: read-out: % Enzyme Activity (relative to DMSO controls)
Excerpt: as §1

[7] = molecular target: 363 human kinases (including Aurora A/B/C) (Homo sapiens, UniProt Q04759); conditions: PKCtheta; for remaining activity at 0.1 µM: 100 nM; for remaining activity at 0.1 µM / remaining activity at 0.5 µM: read-out: % Enzyme Activity (relative to DMSO controls)
Excerpt: as §1

[8] = molecular target: 363 human kinases (including Aurora A/B/C) (Homo sapiens, UniProt P23443); conditions: p70S6K/RPS6KB1; for remaining activity at 0.1 µM: 100 nM; for remaining activity at 0.1 µM / remaining activity at 0.5 µM: read-out: % Enzyme Activity (relative to DMSO controls)
363 human kinases (including Aurora A/B/C) (Homo sapiens, UniProt P23443), sequence (P23443 whole entry): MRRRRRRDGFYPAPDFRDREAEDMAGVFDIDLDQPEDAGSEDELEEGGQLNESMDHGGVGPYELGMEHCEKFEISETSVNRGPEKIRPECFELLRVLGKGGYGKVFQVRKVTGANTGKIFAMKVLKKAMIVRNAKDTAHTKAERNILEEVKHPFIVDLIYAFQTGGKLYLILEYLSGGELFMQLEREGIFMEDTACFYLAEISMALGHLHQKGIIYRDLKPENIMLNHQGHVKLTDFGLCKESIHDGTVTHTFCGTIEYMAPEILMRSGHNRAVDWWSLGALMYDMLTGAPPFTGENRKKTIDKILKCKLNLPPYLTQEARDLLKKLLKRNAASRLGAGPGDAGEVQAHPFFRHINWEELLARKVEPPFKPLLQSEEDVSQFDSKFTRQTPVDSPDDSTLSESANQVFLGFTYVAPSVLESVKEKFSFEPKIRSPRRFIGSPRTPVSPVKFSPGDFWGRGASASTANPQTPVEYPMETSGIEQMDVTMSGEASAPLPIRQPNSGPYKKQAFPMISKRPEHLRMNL
Excerpt: as §1

[9] = molecular target: 363 human kinases (including Aurora A/B/C) (Homo sapiens, UniProt O75914); conditions: PAK3; for remaining activity at 0.1 µM: 100 nM; for remaining activity at 0.1 µM / remaining activity at 0.5 µM: read-out: % Enzyme Activity (relative to DMSO controls)
Excerpt: as §1

[10] = molecular target: T1, 363 human kinases (including Aurora A/B/C) (Homo sapiens, UniProt P10398); conditions: ARAF, [ATP] 15 µM; for remaining activity at 0.1 µM: 100 nM; for remaining activity at 0.1 µM / remaining activity at 0.5 µM: read-out: % Enzyme Activity (relative to DMSO controls)
T1 sequence (P10398 1-606): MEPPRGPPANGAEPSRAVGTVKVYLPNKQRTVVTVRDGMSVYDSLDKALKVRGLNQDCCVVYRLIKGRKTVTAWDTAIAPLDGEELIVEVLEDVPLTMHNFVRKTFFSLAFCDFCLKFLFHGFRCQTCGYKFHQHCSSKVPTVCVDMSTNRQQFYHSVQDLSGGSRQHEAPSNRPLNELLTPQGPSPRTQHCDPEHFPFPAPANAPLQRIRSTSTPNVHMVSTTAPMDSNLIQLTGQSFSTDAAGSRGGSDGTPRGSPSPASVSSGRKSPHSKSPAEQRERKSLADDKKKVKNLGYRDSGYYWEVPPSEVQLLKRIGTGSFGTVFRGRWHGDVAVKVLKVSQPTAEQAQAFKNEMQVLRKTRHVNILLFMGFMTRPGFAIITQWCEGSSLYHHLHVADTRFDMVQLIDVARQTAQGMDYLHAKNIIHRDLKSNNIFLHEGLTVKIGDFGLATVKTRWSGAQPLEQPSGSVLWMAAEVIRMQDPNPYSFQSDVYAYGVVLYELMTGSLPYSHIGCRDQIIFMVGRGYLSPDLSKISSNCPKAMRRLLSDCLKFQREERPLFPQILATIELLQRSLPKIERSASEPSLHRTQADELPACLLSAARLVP
Excerpt: as §1

[11] = molecular target: 363 human kinases (including Aurora A/B/C) (Homo sapiens, UniProt Q06187); conditions: BTK, [ATP] 50 µM; for remaining activity at 0.1 µM: 100 nM; for remaining activity at 0.1 µM / remaining activity at 0.5 µM: read-out: % Enzyme Activity (relative to DMSO controls)
363 human kinases (including Aurora A/B/C) (Homo sapiens, UniProt Q06187), sequence (Q06187 whole entry): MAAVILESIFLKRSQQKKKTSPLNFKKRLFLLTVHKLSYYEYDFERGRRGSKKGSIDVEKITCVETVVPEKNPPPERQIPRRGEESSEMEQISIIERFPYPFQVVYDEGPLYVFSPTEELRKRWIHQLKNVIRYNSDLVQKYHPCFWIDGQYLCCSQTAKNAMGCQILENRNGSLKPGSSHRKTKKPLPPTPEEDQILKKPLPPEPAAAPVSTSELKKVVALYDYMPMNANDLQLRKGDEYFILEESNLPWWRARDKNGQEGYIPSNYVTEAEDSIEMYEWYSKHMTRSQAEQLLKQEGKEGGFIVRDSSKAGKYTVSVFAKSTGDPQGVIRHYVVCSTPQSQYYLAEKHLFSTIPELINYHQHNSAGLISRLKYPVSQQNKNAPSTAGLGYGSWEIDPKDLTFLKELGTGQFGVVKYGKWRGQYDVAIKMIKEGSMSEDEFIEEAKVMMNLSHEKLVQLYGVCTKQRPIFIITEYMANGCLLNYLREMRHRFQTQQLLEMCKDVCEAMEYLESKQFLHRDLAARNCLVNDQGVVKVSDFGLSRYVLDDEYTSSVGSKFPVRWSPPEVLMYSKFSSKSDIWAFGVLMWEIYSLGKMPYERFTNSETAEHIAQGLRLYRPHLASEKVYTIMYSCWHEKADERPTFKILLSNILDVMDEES
Excerpt: as §1

[12] = molecular target: T2, 363 human kinases (including Aurora A/B/C) (Homo sapiens, UniProt Q13188); conditions: MST2/STK3; for remaining activity at 0.1 µM: 100 nM; for remaining activity at 0.1 µM / remaining activity at 0.5 µM: read-out: % Enzyme Activity (relative to DMSO controls)
T2 sequence (Q13188 1-491): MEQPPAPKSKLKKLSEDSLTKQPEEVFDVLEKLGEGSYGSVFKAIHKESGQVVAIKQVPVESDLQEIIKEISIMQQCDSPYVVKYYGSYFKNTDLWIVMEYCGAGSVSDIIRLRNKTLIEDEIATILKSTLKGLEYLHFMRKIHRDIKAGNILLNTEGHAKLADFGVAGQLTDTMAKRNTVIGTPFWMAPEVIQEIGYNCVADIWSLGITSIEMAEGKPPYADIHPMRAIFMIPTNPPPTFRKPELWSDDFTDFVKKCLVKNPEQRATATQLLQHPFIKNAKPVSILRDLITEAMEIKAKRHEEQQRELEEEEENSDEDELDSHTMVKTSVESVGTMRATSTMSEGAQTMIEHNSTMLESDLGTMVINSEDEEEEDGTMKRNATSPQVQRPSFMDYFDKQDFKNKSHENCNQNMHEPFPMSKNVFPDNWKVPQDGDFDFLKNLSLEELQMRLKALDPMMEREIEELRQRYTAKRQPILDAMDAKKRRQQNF
Excerpt: as §1

[13] = molecular target: 363 human kinases (including Aurora A/B/C) (Homo sapiens, UniProt P43405); conditions: SYK; for remaining activity at 0.1 µM: 100 nM; for remaining activity at 0.1 µM / remaining activity at 0.5 µM: read-out: % Enzyme Activity (relative to DMSO controls)
Excerpt: as §1

[14] = molecular target: 363 human kinases (including Aurora A/B/C) (Homo sapiens, UniProt P45984); conditions: JNK2; for remaining activity at 0.1 µM: 100 nM; for remaining activity at 0.1 µM / remaining activity at 0.5 µM: read-out: % Enzyme Activity (relative to DMSO controls)
363 human kinases (including Aurora A/B/C) (Homo sapiens, UniProt P45984), sequence (P45984 whole entry): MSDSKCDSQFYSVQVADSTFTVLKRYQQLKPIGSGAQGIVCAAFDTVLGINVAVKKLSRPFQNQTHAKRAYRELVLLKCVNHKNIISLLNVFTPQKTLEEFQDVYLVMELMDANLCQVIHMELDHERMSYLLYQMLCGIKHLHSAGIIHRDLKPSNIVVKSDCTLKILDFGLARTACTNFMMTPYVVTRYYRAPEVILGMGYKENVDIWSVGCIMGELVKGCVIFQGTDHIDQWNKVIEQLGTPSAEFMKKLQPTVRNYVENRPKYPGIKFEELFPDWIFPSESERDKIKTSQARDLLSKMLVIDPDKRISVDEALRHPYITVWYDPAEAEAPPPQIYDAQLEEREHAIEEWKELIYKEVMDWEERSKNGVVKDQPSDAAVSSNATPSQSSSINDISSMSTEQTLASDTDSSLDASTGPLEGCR
Excerpt: as §1

[15] = molecular target: T3, 363 human kinases (including Aurora A/B/C) (Homo sapiens, UniProt P36897); conditions: ALK5/TGFBR1, [ATP] 100 µM; for remaining activity at 0.1 µM: 100 nM; for remaining activity at 0.1 µM / remaining activity at 0.5 µM: read-out: % Enzyme Activity (relative to DMSO controls)
T3 sequence (P36897 34-503): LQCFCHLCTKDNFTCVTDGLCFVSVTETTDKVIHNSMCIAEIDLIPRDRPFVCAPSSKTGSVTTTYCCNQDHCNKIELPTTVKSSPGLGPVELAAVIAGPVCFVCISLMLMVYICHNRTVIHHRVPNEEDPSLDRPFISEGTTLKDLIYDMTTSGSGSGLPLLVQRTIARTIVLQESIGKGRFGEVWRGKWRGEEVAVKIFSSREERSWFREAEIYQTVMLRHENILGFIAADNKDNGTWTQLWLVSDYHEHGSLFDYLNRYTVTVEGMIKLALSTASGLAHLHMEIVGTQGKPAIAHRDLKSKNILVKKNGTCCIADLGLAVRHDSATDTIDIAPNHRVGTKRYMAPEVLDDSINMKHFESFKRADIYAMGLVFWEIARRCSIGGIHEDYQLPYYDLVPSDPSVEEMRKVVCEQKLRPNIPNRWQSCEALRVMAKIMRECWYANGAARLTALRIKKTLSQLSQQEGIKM
Excerpt: as §1

363 human kinases (including Aurora A/B/C) (Homo sapiens, UniProt Q15349), sequence (Q15349 whole entry): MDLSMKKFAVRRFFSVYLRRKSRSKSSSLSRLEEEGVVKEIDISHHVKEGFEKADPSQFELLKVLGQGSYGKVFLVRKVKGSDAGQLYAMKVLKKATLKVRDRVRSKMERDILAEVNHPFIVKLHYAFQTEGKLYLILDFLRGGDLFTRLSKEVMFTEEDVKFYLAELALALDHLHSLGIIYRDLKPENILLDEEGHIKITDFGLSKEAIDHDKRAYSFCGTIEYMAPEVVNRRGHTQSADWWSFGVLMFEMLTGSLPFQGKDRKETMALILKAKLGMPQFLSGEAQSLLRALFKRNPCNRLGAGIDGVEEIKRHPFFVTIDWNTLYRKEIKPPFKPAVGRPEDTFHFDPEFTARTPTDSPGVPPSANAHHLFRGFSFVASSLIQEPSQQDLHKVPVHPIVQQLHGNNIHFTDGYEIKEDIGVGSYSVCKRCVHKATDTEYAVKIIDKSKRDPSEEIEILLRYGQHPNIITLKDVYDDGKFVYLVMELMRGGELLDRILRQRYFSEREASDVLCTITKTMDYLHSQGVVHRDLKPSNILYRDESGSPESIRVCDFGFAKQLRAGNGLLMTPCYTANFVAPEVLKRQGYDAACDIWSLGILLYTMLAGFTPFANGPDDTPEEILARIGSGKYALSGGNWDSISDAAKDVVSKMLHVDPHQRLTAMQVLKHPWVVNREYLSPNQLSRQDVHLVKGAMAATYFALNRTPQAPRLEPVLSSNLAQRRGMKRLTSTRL

Structure (SMILES): CCn1cc(-c2ccnc3[nH]c(-c4cccc(CN(C)C)c4)cc23)c(-c2ccc(NC(=O)N(C)C)cc2)n1 [GSK1070916]
- remaining activity at 0.1 µM [1]: 95.2%
- remaining activity at 0.1 µM [2]: 101%
- remaining activity at 0.1 µM [3]: 96.9%
- remaining activity at 0.1 µM [4]: 110%
- remaining activity at 0.1 µM [5]: 95.6%
- remaining activity at 0.1 µM [6]: 79.2%
- remaining activity at 0.1 µM [7]: 92.7%
- remaining activity at 0.1 µM [8]: 101%
- remaining activity at 0.1 µM [9]: 92.5%
- remaining activity at 0.1 µM [10]: 94.9%
- remaining activity at 0.1 µM [11]: 102%
- remaining activity at 0.1 µM [12]: 91.8%
- remaining activity at 0.1 µM [13]: 84.8%
- remaining activity at 0.1 µM [14]: 94.7%
- remaining activity at 0.1 µM [15]: 106%

Structure (SMILES): O=C(O)[C@]1(Cc2cccc(Nc3nccs3)n2)CC[C@@H](Oc2cccc(Cl)c2F)CC1 [MK-5108]
- remaining activity at 0.1 µM [1]: 101%
- remaining activity at 0.5 µM ([1]; 500 nM): 89.7%
- remaining activity at 0.1 µM [2]: 126%
- remaining activity at 0.5 µM ([2]; 500 nM): 97.9%
- remaining activity at 0.1 µM [3]: 89.1%
- remaining activity at 0.5 µM ([3]; 500 nM): 73.5%
- remaining activity at 0.1 µM [4]: 108%
- remaining activity at 0.5 µM ([4]; 500 nM): 104%
- remaining activity at 0.1 µM [5]: 102%
- remaining activity at 0.5 µM ([5]; 500 nM): 100%
- remaining activity at 0.1 µM [6]: 76.9%
- remaining activity at 0.5 µM ([6]; 500 nM): 45.6%
- remaining activity at 0.1 µM [7]: 91.8%
- remaining activity at 0.5 µM ([7]; 500 nM): 104%
- remaining activity at 0.1 µM [8]: 98.3%
- remaining activity at 0.5 µM ([8]; 500 nM): 97.7%
- remaining activity at 0.1 µM [9]: 92.3%
- remaining activity at 0.5 µM ([9]; 500 nM): 88.8%
- remaining activity at 0.1 µM [10]: 96.4%
- remaining activity at 0.5 µM ([10]; 500 nM): 94.4%
- remaining activity at 0.1 µM [11]: 69.8%
- remaining activity at 0.5 µM ([11]; 500 nM): 30.2%
- remaining activity at 0.1 µM [12]: 87.7%
- remaining activity at 0.5 µM ([12]; 500 nM): 48.4%
- remaining activity at 0.1 µM [13]: 93.8%
- remaining activity at 0.5 µM ([13]; 500 nM): 63.6%
- remaining activity at 0.1 µM [14]: 95.7%
- remaining activity at 0.5 µM ([14]; 500 nM): 86.7%
- remaining activity at 0.1 µM [15]: 116%
- remaining activity at 0.5 µM ([15]; 500 nM): 130%

Structure (SMILES): O=C(c1cccc(Cl)c1F)N1CCN(Cc2cccc(Nc3nccs3)n2)CC1 [MK-8745]
- % Enzyme Activity (relative to DMSO controls) ([1]; 500 nM): 96.48%
- remaining activity at 0.5 µM ([1]; 500 nM): 99.9%
- % Enzyme Activity (relative to DMSO controls) ([2]; 500 nM): 91.42%
- remaining activity at 0.5 µM ([2]; 500 nM): 91.9%
- % Enzyme Activity (relative to DMSO controls) ([3]; 500 nM): 89.65%
- remaining activity at 0.5 µM ([3]; 500 nM): 90.7%
- % Enzyme Activity (relative to DMSO controls) ([4]; 500 nM): 105.68%
- remaining activity at 0.5 µM ([4]; 500 nM): 106%
- % Enzyme Activity (relative to DMSO controls) ([5]; 500 nM): 92.28%
- remaining activity at 0.5 µM ([5]; 500 nM): 92.9%
- % Enzyme Activity (relative to DMSO controls) ([6]; 500 nM): 64.18%
- remaining activity at 0.5 µM ([6]; 500 nM): 65.1%
- % Enzyme Activity (relative to DMSO controls) ([7]; 500 nM): 152.58%
- remaining activity at 0.5 µM ([7]; 500 nM): 157%
- % Enzyme Activity (relative to DMSO controls) ([8]; 500 nM): 99.31%
- remaining activity at 0.5 µM ([8]; 500 nM): 100%
- % Enzyme Activity (relative to DMSO controls) ([9]; 500 nM): 91.67%
- remaining activity at 0.5 µM ([9]; 500 nM): 94%
- % Enzyme Activity (relative to DMSO controls) ([10]; 500 nM): 95.99%
- remaining activity at 0.5 µM ([10]; 500 nM): 96%
- % Enzyme Activity (relative to DMSO controls) ([11]; 500 nM): 94.23%
- remaining activity at 0.5 µM ([11]; 500 nM): 94.5%
- % Enzyme Activity (relative to DMSO controls) ([12]; 500 nM): 46.05%
- remaining activity at 0.5 µM ([12]; 500 nM): 46.6%
- % Enzyme Activity (relative to DMSO controls) ([13]; 500 nM): 82.70%
- remaining activity at 0.5 µM ([13]; 500 nM): 83.2%
- % Enzyme Activity (relative to DMSO controls) ([14]; 500 nM): 49.53%
- remaining activity at 0.5 µM ([14]; 500 nM): 49.7%
- % Enzyme Activity (relative to DMSO controls) ([15]; 500 nM): 109.55%
- remaining activity at 0.5 µM ([15]; 500 nM): 110%
